Data from patent US10011602B2, “Immunological reagents and uses therefor” (THE UNIVERSITY OF MELBOURNE, priority 2012, dated 2018).

Experiments:
human PBMC MAIT cells = test: MR1 tetramer staining of human PBMCs (flow cytometry); type: cell-based; conditions: PE-streptavidin tetramers; D5, CD161 co-staining
Experimental: Biotinylated MR1 (produced in either of the 2 methods mentioned above) is used to make tetramers by the addition of biotinylated MR1 to PE Streptavidin (#554061, BD Pharmingen) in a 4:1 molar ratio. PE Streptavidin is added sequentially in 1/10 aliquots to biotinylated MR1 at 10 minute intervals to ensure efficient tetramization.
Human MAIT cells are identified as being D5-positive (D5 mAb stains Vα7.2,-positive T cells; Vα7.2 is the invariant Vα-chain utilized by human MAIT cells) and CD161-positive. Human PBMCs were stained with CD3-PE-Cy7, CD8-PerCP, CD4-APC-Cy7, CD161-APC specific mAbs; as well as the anti-Vα7.2-FITC mAb D5 (generated in-house; human MAIT cells utilize the Vα7.2 alpha chain) and PE-labeled tetramers of mouse MR1-β2m-acetyl-6-Formyl Pterin (mouse MR1 had been refolded with either 6-formyl pterin or acetyl-6-formyl pterin).

MR1 = molecular target: T1, MR1 (Homo sapiens, UniProt Q95460); test: Refolding of denatured MR1 and β2m with ligands; type: binding; conditions: substance added to MR1/β2m refold
T1 construct: soluble human MR1 (residues 1-270 of the mature, leaderless protein); made in house
T1 sequence (Q95460 23-292): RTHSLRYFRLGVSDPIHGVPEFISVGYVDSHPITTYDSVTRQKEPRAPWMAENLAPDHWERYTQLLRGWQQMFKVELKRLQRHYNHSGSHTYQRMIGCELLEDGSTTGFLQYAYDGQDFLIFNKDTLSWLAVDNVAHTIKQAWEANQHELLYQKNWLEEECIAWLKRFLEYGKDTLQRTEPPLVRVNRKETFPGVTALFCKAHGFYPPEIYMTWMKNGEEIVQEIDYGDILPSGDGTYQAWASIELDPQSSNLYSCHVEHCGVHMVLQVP
T1 sequence (P61769 21-119 partner): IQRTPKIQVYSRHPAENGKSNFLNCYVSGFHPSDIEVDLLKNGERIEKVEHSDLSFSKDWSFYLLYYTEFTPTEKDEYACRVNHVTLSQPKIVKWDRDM
Experimental: Genes encoding soluble human MR1 (residues 1-270 of the mature, leaderless protein, lacking the transmembrane and cytoplasmic domains); or human β2m (mature, leaderless protein) were expressed for four hours in BL21 E. coli following induction with 1 mM isopropyl β-D-1-thiogalactopyranoside. E. coli were pelleted and resuspended in a buffer containing 50 mM Tris, 25% (w/v) sucrose, 1 mM EDTA, 10 mM DTT pH 8.0. Inclusion body protein was then extracted by lysis of bacteria in a buffer containing 50 mM Tris pH 8.0, 1% (w/v) Triton X-100, 1% (w/v) sodium deoxycholate, 100 mM NaCl, 10 mM DTT, 5 mM MgCl2, and 1 mg DnaseI per liter of starting culture; and subsequent steps involved homogenization with a polytron homogenizer, centrifugation, and washing inclusion body protein sequentially with firstly a buffer containing 50 mM Tris pH 8, […], 100 mM NaCl, 1 mM EDTA, 1 mM DTT, and secondly a buffer containing 50 mM Tris pH 8.0, 1 mM EDTA, 1 mM DTT. Inclusion body protein was then resuspended in a buffer containing 20 mM Tris pH 8.0, 8 M urea, 0.5 mM EDTA, 1 mM DTT, and following centrifugation the supernatant containing solubilized, denatured inclusion body protein was collected and stored at −80° C.
2 mg of 6-formyl pterin, 56 mg of denatured inclusion body MR1 protein, and 28 mg of β2m protein were added to a 400 ml refold buffer solution containing 0.1 M Tris pH 8.5, 2 mM EDTA, 0.4 M arginine, 0.5 mM oxidized glutathione, 5 mM reduced glutathione. Variably, 5M urea was either present or absent. Following an overnight incubation at 4° C., the refold buffer was dialysed against 3 changes of buffer containing 10 mM Tris, pH8.0 over a period of 24 hours. Refolded MR1-β2m-ligand complex was then purified by sequential DEAE (GE Healthcare) anion exchange, S75 16/60 (GE Healthcare) gel filtration, and MonoQ (GE Healthcare) anion exchange chromatography.

MAIT cells = test: Re-presentation assay: refolded soluble MR1 added to antigen presenting cells expressing MR1 and MAIT cells; type: cell-based; conditions: MR1 refolded with the named substance
Jurkat.MAIT cells = test: Activation of Jurkat.MAIT cells (CD69) with C1R antigen presenting cells expressing MR1; type: cell-based, human
Experimental: Jurkat cells transduced with a MAIT TCR comprising the TRAV1-2+TRAJ33 invariant α chain, and a TRBV6-1 β chain were tested for activation by addition of Salmonella supernatant to C1R antigen presenting cells expressing MR1 for 16 hours. Jurkat.MAIT cells were subsequently stained with PE-conjugated anti-CD3, and APC-conjugated anti-CD69 antibodies before analysis by flow cytometry. Activation of Jurkat.MAIT cells was measured by an increase in surface CD69 expression. Compounds to be tested for the ability to activate Jurkat.MAIT cells were tested alongside Salmonella supernatant.
A biological assay for the activation of MAIT T cell receptor (TCR)-expressing T cell lines (into which genes encoding the MAIT TCR alpha and beta chains had been introduced), by antigen presenting cells (expressing MR1 on the cell surface) infected with the bacterium Salmonella typhimurium has been established. This assay measures the increase in expression of the cell surface activation marker, CD69, upon activation of MAIT T cells.

Row | Molecule | Tetramer staining of human PBMC MAIT cells (human PBMC MAIT cells) | Ability to refold MR1 into native MR1-β2m complex (MR1) | other results
1 | human Leucine151Alanine MR1 refolded with acetyl-6-FP: tetramers from human Leucine151Alanine MR1 (BirA peptide-tagged) refolded with acetyl-6-FP | stain a proportion | – | –
2 | Cc1nc2nc(N)[nH]c(=O)c2nc1C [6-7-dimethylpterin] | – | inability | –
3 | Nc1nc2nccnc2c(=O)[nH]1 [pterin] | – | inability | –
4 | Nc1nc2ncc(CNc3ccc(C(=O)N[C@@H](CCC(=O)O)C(=O)O)cc3)nc2c(=O)[nH]1 [Folic acid] | – | yielded significant amounts of native MR1 | Activation of MAIT cells by MR1 refolded with the substance (re-presentation assay) (MAIT cells): failed to activate; Activation of MAIT cells by MR1 refolded with the substance (re-presentation assay) (MAIT cells; listed as folic acid): non-stimulatory
5 | human wild-type MR1 refolded with 6-FP: control tetramers from human wild-type MR1 refolded with 6-FP | fail to stain | – | –
6 | Cc1cc2nc3c(=O)[nH]c(=O)nc-3n(C[C@H](O)[C@H](O)[C@H](O)CO)c2cc1C [riboflavin, reference compound] | – | did not form MR1-β2m complexes | Activation of Jurkat.MAIT cells (increase in surface CD69) (Jurkat.MAIT cells): did not
7 | mouse MR1 refolded with 6-FP: tetramers from mouse MR1 (BirA peptide-tagged) refolded with 6-FP (protein, UniProt Q8HWB0 19-341, looked up, BirA tag, tetramer, 6-FP ligand) Major histocompatibility …: RTHSLRYFRLAVSDPGPVVPEFISVGYVDSHPITTYDSVTRQKEPKAPWMAENLAPDHWERYTQLLRGWQQTFKAELRHLQRHYNHSGLHTYQRMIGCELLEDGSTTGFLQYAYDGQDFIIFNKDTLSWLAMDYVAHITKQAWEANLHELQYQKNWLEEECIAWLKRFLEYGRDTLERTEHPVVRTTRKETFPGITTFFCRAHGFYPPEISMTWMKNGEEIAQEVDYGGVLPSGDGTYQTWLSVNLDPQSNDVYSCHVEHCGRQMVLEAPRESGDILRVSTISGTTILIIALAGVGVLIWRRSQELKEVMYQPTQVNEGSSPS | can stain a proportion | – | –
8 | rRL-6-CH2OH-loaded mouse Lys43Ala-MR1: tetramers of mouse Lys43Ala-MR1 loaded with rRL-6-CH2OH (protein, UniProt Q8HWB0 19-341, looked up, variant K43A, tetramer loaded with rRL-6-CH2OH, tetramers of mouse Lys43Ala-MR1 loaded with rRL-6-CH2OH) Major histocompatibility …: RTHSLRYFRLAVSDPGPVVPEFISVGYVDSHPITTYDSVTRQAEPKAPWMAENLAPDHWERYTQLLRGWQQTFKAELRHLQRHYNHSGLHTYQRMIGCELLEDGSTTGFLQYAYDGQDFIIFNKDTLSWLAMDYVAHITKQAWEANLHELQYQKNWLEEECIAWLKRFLEYGRDTLERTEHPVVRTTRKETFPGITTFFCRAHGFYPPEISMTWMKNGEEIAQEVDYGGVLPSGDGTYQTWLSVNLDPQSNDVYSCHVEHCGRQMVLEAPRESGDILRVSTISGTTILIIALAGVGVLIWRRSQELKEVMYQPTQVNEGSSPS | identify a CD161-positive, D5-positive population | – | –
